Assay results taken from article PMC8946696, “27-Hydroxycholesterol Binds GPER and Induces Progression of Estrogen Receptor-Negative Breast Cancer” (Cancers, 2022).
pIC50: −log10 of the molar value.

Molecular target: T1, G Protein-Coupled Estrogen Receptor (GPER, GPR30) (Homo sapiens, UniProt Q99527)
T1 construct: gene GPER1; plasma membranes of HEK293 cells stably transfected with GPER
Experiment: [3H]E2 competitive radioligand binding to plasma membranes of GPER-transfected HEK293 cells

T1 sequence (Q99527 whole entry): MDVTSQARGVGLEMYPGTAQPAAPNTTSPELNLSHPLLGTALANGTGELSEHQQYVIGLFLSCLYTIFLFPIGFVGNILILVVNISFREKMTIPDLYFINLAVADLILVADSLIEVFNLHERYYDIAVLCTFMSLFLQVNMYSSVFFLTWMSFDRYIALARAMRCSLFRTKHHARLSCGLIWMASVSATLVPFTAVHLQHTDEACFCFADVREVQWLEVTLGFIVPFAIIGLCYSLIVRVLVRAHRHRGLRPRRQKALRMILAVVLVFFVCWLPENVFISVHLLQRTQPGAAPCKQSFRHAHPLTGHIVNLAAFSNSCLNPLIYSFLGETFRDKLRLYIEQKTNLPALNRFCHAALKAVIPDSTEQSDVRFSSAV

C[C@@H](CO)CCC[C@@H](C)[C@H]1CC[C@H]2[C@@H]3CC=C4C[C@@H](O)CC[C@]4(C)[C@H]3CC[C@]12C [27HC, 27-hydroxycholesterol]
pIC50: 6.10 to 6.30
